Columns and labels:
[1] = target: Receptor tyrosine-protein kinase erbB-3 (Homo sapiens) (UniProt P21860); conditions: Compound concentration 100.0 nM
[2] = target: Cyclin-dependent kinase-like 2 (Homo sapiens) (UniProt Q92772); conditions: Compound concentration 100.0 nM
[3] = target: Serine/threonine-protein kinase NLK (Homo sapiens) (UniProt Q9UBE8); conditions: Compound concentration 100.0 nM
[4] = target: Casein kinase I isoform delta (Homo sapiens) (UniProt P48730); conditions: Compound concentration 100.0 nM
[5] = target: NUAK family SNF1-like kinase 1 (Homo sapiens) (UniProt O60285); conditions: Compound concentration 100.0 nM
[6] = system: Tyrosine-protein kinase ABL1 (Homo sapiens), P00519 [Q252H]; conditions: Compound concentration 100.0 nM
[7] = target: Histamine H3 receptor (Homo sapiens) (UniProt Q9Y5N1); conditions: Compound concentration 10.0 uM
[8] = target: Dual specificity testis-specific protein kinase 1 (Homo sapiens) (UniProt Q15569); conditions: Compound concentration 100.0 nM
[9] = target: Cyclin-dependent kinase 17 (Homo sapiens) (UniProt Q00537); conditions: Compound concentration 100.0 nM
[10] = target: Proto-oncogene tyrosine-protein kinase receptor Ret (Homo sapiens) (UniProt P07949); conditions: Compound concentration 100.0 nM
[11] = target: Calcium/calmodulin-dependent protein kinase type 1D (Homo sapiens) (UniProt Q8IU85); conditions: Compound concentration 100.0 nM
[12] = target: Ribosomal protein S6 kinase alpha-1 (Homo sapiens) (UniProt Q15418); conditions: Compound concentration 100.0 nM
[13] = target: Ribosomal protein S6 kinase alpha-1 (Homo sapiens) (UniProt Q15418); conditions: Compound concentration 100.0 nM; remark: listed apart in the source
[14] = system: Tyrosine-protein kinase ABL1 (Homo sapiens), P00519 [H396P]; conditions: Compound concentration 100.0 nM
[15] = target: Bone morphogenetic protein receptor type-1A (Homo sapiens) (UniProt P36894); conditions: Compound concentration 100.0 nM
[16] = target: Tyrosine-protein kinase JAK1 (Homo sapiens) (UniProt P23458); conditions: Compound concentration 100.0 nM
[17] = target: G protein-coupled receptor kinase 4 (Homo sapiens) (UniProt P32298); conditions: Compound concentration 100.0 nM
[18] = target: Interleukin-1 receptor-associated kinase 3 (Homo sapiens) (UniProt Q9Y616); conditions: Compound concentration 100.0 nM
[19] = target: Cyclin-dependent kinase 18 (Homo sapiens) (UniProt Q07002); conditions: Compound concentration 100.0 nM
[20] = target: Serine/threonine-protein kinase 4 (Homo sapiens) (UniProt Q13043); conditions: Compound concentration 100.0 nM
[21] = target: Serine/threonine-protein kinase 24 (Homo sapiens) (UniProt Q9Y6E0); conditions: Compound concentration 100.0 nM
[22] = target: D(4) dopamine receptor (Homo sapiens) (UniProt P21917); conditions: Compound concentration 10.0 uM
[23] = target: Phosphatidylinositol 3-kinase catalytic subunit type 3 (Homo sapiens) (UniProt Q8NEB9); conditions: Compound concentration 100.0 nM
[24] = target: T1, Alpha-2C adrenergic receptor (Homo sapiens) (UniProt P18825); conditions: Compound concentration 10.0 uM
T1 sequence (whole entry): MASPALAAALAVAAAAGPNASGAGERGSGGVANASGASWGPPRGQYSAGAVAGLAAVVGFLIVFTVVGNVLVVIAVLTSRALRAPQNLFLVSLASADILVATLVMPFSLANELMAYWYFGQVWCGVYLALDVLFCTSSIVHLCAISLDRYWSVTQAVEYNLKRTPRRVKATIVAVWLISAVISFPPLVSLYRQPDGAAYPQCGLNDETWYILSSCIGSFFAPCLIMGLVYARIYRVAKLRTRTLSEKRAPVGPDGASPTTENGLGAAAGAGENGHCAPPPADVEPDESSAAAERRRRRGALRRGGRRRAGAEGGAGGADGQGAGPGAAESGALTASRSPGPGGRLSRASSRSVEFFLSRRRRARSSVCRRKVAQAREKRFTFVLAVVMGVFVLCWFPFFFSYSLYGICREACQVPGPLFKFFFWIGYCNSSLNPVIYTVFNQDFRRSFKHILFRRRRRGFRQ

[25] = target: Protein kinase C iota type (Homo sapiens) (UniProt P41743); conditions: Compound concentration 100.0 nM
[26] = target: BMP-2-inducible protein kinase (Homo sapiens) (UniProt Q9NSY1); conditions: Compound concentration 100.0 nM
[27] = target: Serine/threonine-protein kinase 17B (Homo sapiens) (UniProt O94768); conditions: Compound concentration 100.0 nM
[28] = target: Kappa-type opioid receptor (Homo sapiens) (UniProt P41145); conditions: Compound concentration 10.0 uM
[29] = target: Histamine H1 receptor (Homo sapiens) (UniProt P35367); conditions: Compound concentration 10.0 uM
[30] = target: Receptor tyrosine-protein kinase erbB-4 (Homo sapiens) (UniProt Q15303); conditions: Compound concentration 100.0 nM
[31] = target: Fibroblast growth factor receptor 4 (Homo sapiens) (UniProt P22455); conditions: Compound concentration 100.0 nM
[32] = target: T2, Muscarinic acetylcholine receptor M4 (Homo sapiens) (UniProt P08173); conditions: Compound concentration 10.0 uM
T2 sequence (whole entry): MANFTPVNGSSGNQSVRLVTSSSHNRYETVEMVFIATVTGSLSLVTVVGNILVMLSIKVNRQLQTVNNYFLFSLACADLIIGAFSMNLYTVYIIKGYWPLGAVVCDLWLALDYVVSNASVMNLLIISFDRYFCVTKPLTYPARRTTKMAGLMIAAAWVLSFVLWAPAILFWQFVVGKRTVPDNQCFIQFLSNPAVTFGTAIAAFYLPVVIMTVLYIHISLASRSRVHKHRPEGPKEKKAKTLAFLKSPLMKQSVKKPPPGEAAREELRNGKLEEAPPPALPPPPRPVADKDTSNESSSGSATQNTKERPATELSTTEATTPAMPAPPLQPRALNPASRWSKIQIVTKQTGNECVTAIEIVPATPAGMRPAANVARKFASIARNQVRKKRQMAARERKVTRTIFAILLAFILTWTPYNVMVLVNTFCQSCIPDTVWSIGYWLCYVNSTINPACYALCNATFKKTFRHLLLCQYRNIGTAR

[33] = target: Calcium/calmodulin-dependent protein kinase type IV (Homo sapiens) (UniProt Q16566); conditions: Compound concentration 100.0 nM
Chain of Calcium/calmodulin-dependent protein kinase type IV (Homo sapiens) (Q16566 whole entry): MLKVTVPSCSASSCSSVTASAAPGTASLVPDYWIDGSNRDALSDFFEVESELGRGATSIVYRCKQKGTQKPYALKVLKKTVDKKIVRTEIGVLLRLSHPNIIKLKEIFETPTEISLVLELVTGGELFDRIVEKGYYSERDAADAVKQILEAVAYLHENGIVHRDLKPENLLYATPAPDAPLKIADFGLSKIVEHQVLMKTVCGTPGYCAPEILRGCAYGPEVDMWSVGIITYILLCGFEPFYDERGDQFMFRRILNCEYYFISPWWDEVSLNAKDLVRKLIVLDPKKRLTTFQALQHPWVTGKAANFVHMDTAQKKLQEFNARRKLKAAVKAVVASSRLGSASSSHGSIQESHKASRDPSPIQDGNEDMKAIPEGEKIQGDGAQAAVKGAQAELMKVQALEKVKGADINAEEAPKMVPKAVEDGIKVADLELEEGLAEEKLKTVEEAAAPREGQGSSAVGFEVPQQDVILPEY

Chain of Ribosomal protein S6 kinase alpha-1 (Homo sapiens) (Q15418 whole entry): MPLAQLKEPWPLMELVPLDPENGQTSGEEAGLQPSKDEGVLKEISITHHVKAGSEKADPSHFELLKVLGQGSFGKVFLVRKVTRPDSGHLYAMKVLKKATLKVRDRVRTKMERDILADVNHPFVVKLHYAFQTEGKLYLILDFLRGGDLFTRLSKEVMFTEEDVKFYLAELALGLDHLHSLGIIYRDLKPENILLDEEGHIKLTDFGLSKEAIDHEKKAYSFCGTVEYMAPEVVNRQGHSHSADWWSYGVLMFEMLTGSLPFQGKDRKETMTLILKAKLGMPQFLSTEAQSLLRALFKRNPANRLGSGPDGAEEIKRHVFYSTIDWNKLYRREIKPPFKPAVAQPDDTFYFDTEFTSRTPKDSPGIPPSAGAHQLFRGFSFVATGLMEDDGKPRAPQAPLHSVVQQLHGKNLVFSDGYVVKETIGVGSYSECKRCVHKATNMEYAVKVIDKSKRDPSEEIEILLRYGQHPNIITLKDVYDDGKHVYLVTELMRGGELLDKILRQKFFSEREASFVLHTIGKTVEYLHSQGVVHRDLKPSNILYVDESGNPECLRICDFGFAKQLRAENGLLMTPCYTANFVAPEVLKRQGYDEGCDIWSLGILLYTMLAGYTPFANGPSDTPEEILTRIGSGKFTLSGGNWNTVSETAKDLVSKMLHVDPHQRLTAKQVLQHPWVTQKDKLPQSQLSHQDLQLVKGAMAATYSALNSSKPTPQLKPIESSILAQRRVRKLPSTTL
Chain of Histamine H3 receptor (Homo sapiens) (Q9Y5N1 whole entry): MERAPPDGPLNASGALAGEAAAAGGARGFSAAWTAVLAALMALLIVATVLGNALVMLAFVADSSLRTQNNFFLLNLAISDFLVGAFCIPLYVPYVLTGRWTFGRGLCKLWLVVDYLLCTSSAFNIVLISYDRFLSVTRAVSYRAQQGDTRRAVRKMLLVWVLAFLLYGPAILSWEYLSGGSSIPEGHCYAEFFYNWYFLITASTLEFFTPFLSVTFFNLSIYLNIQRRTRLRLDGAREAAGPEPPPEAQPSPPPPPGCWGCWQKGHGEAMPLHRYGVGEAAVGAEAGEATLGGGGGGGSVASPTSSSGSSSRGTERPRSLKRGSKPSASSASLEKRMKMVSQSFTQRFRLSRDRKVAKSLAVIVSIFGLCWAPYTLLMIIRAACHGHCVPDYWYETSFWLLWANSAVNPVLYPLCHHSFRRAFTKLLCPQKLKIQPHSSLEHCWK
Chain of Tyrosine-protein kinase JAK1 (Homo sapiens) (P23458 whole entry): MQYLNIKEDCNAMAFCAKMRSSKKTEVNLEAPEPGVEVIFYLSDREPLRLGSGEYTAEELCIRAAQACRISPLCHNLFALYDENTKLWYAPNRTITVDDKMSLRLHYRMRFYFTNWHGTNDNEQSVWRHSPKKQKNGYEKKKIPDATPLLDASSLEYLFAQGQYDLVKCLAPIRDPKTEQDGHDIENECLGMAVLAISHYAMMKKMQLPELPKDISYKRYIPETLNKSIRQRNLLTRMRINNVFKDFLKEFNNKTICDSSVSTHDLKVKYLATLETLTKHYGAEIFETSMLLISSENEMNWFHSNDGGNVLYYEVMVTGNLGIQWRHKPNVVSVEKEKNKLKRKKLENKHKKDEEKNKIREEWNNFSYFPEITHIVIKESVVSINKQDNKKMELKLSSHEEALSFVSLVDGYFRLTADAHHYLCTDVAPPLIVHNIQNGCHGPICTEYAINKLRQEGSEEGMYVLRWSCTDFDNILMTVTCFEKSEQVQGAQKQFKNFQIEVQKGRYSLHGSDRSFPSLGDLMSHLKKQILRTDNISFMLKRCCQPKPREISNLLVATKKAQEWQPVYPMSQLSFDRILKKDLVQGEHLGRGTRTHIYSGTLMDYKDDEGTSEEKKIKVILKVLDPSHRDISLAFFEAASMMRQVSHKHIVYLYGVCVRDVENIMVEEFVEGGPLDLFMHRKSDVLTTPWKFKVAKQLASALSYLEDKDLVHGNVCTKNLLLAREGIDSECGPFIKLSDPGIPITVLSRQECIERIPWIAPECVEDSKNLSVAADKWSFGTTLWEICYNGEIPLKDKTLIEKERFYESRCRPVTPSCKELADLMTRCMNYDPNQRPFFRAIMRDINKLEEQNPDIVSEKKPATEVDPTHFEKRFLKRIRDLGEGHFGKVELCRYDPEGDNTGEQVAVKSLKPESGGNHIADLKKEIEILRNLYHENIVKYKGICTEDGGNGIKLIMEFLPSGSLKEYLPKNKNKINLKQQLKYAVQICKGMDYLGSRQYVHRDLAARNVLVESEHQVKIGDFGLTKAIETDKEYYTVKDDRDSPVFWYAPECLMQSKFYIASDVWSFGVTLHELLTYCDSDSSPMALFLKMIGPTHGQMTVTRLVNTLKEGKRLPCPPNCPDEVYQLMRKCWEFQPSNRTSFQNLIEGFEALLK
Chain of Calcium/calmodulin-dependent protein kinase type 1D (Homo sapiens) (Q8IU85 whole entry, looked up): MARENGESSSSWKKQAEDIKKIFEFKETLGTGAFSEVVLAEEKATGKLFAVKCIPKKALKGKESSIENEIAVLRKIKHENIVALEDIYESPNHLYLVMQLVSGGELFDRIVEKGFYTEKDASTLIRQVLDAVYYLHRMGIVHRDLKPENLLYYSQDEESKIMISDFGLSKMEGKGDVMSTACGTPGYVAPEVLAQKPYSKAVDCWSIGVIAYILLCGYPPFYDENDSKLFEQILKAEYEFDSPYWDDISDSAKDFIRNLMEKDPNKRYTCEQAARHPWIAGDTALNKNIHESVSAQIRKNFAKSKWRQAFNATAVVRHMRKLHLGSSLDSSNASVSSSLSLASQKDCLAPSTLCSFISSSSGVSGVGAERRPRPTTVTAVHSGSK
Chain of Cyclin-dependent kinase 17 (Homo sapiens) (Q00537 whole entry, looked up): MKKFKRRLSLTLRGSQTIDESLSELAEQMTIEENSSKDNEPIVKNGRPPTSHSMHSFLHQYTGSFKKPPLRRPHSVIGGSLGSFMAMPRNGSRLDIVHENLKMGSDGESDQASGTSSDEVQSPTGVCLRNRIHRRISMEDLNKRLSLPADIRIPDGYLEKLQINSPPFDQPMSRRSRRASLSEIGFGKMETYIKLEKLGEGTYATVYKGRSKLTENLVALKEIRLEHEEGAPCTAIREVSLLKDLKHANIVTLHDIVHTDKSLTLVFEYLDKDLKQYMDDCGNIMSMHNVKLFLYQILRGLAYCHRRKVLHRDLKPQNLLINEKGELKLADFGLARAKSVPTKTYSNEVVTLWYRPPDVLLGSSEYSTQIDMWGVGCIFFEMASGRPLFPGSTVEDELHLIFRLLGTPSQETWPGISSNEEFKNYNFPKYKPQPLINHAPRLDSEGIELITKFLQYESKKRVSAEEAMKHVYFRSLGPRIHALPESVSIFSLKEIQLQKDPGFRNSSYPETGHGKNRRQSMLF
Chain of D(4) dopamine receptor (Homo sapiens) (P21917 whole entry): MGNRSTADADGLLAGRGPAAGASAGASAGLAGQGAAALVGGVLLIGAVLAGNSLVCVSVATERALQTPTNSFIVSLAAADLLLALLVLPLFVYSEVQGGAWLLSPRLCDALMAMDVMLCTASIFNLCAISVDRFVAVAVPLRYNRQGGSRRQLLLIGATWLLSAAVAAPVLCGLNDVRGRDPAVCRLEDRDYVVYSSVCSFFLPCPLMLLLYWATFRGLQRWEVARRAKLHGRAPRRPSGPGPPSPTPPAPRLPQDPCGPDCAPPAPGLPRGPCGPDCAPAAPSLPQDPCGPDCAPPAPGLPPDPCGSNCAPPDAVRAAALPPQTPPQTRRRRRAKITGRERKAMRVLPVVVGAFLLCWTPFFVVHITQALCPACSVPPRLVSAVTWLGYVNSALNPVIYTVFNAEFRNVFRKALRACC
Chain of NUAK family SNF1-like kinase 1 (Homo sapiens) (O60285 whole entry): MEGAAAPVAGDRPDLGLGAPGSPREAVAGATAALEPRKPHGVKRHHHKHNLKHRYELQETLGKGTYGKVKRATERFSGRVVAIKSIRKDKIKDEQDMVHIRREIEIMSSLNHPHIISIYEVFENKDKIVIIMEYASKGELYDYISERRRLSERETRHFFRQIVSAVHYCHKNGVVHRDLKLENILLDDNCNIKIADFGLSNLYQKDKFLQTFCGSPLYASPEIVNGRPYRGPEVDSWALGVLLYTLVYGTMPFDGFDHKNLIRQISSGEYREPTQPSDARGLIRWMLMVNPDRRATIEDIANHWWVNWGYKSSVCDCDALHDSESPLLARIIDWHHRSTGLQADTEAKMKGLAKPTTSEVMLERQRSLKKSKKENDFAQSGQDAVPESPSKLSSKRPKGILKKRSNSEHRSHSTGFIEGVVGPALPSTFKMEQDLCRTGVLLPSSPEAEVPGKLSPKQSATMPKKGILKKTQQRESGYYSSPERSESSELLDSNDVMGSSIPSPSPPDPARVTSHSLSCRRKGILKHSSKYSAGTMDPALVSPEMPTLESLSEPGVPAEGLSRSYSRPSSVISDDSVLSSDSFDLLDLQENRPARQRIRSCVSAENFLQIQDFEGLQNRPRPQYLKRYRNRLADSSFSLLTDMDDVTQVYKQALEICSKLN

CC(C)CC(=O)N1CCc2nc(-c3ccc(Br)cc3)nc(N(C)Cc3ccccc3)c2C1 [THPP-1-NC]
inactive: residual activity [1] 73% | residual activity [2] 87% | residual activity [3] 100% | residual activity [4] 83% | residual activity [5] 100% | residual activity [6] 88% | inhibition [7] 18.3% | residual activity [8] 100% | residual activity [9] 100% | residual activity [10] 68% | residual activity [11] 100% | residual activity [12] 100% | residual activity [13] 93% | residual activity [14] 68% | residual activity [15] 93% | residual activity [16] 71% | residual activity [17] 75% | residual activity [18] 100% | residual activity [19] 100% | residual activity [20] 100% | residual activity [21] 100% | inhibition [22] 7.93% | residual activity [23] 100% | inhibition [24] 48% | residual activity [25] 100% | residual activity [26] 99% | residual activity [27] 91% | inhibition [28] 38% | inhibition [29] 12.6% | residual activity [30] 94% | residual activity [31] 98% | inhibition [32] 3.58% | residual activity [33] 100%

COCCOc1nc(-c2ccc(Cl)nc2)nc2c1CN(C(=O)c1ncn3ccccc13)CC2 [THPP-1]
inactive: residual activity [1] 65% | residual activity [2] 98% | residual activity [3] 100% | residual activity [4] 84% | residual activity [5] 100% | residual activity [6] 81% | inhibition [7] 5.45% | residual activity [8] 100% | residual activity [9] 100% | residual activity [10] 88% | residual activity [11] 100% | residual activity [12] 100% | residual activity [13] 100% | residual activity [14] 70% | residual activity [15] 82% | residual activity [16] 76% | residual activity [17] 73% | residual activity [18] 100% | residual activity [19] 100% | residual activity [20] 100% | residual activity [21] 100% | inhibition [22] 15.7% | residual activity [23] 100% | inhibition [24] 1.3% | residual activity [25] 100% | residual activity [26] 90% | residual activity [27] 62% | inhibition [28] -1.56% | inhibition [29] 23.9% | residual activity [30] 80% | residual activity [31] 90% | inhibition [32] 2% | residual activity [33] 100%
